Patent publication US12642860B2, “Filamentous nanostructures and their use for treatment of pulmonary disease” (THE JOHNS HOPKINS UNIVERSITY, priority 2019, dated 2026)
Non-standard residues stand in square brackets, D forms with d. Residues, ends and D or L forms follow the SMILES beside them. ξ: configuration not given here. *: point of attachment. X2 = CCCC1O[C@@H]2C[C@H]3[C@@H]4CCC5=CC(=O)C=C[C@]5(C)[C@H]4[C@@H](O)CC3(C)C2(C(=O)COC(=O)OCCS*)O1; Lauroyl = CCCCCCCCCCCC(=O)*; X1 = COCCOCCOCCOCCOCCC(=O)*; ξE = NC(CCC(=O)O)C(=O)O; ξQ = NC(=O)CCC(N)C(=O)O; ξD = NC(CC(=O)O)C(=O)O; ξL = CC(C)CC(N)C(=O)O; ξK = NCCCCC(N)C(=O)O; ξV = CC(C)C(N)C(=O)O; ξP = O=C(O)C1CCCN1

Assays:
Assay type in all cases: physicochemical
[1] = TEM morphology of filaments after jet nebulization; settings: 500 μM, jet nebulization 10 min, mist and reservoir
Excerpt: (§1) Since the supramolecular filament compositions are several microns long and are formed through non-covalent interactions, their structural integrity may be influenced by a number of factors during nebulization, such as agitation and aerosol formation. Thus, we first assessed the structural stability of these systems while traveling in aerosol droplets generated by a jet nebulizer. Nebulizers are commonly employed medical devices for producing liquid aerosol droplets containing therapeutics via high velocity airflow through the device nozzle. Droplets very large in diameter impact baffles and/or the walls of the nebulizer and are recycled back into the device's reservoir, but droplets small enough to circumvent these barriers (typically ranging in diameter from 1 to 10 μm) exit the device as a respirable aerosol. Therefore, we characterized two groups of structures after nebulization: the exiting mist and the leftover solution in the reservoir. Filament compositions in solutions diluted down to 500 µM of the different PAs were loaded into a jet nebulizer and nebulized for 10 minutes, and the mist and leftover reservoir solutions were collected and subsequently analyzed with TEM. […] For both the nebulized and reservoir populations, we see the introduction of short bundled fibrils, worm-like micelles, and spherical micelles (spherical micelles depicted in FIG. 7).
After encapsulation, we used TEM imaging to confirm self-assembly of the system into filamentous nanostructures. […] Spherical micelles are still observed, but the fibril and worm-like structures are not. […] In terms of delivering therapeutics in an aerosol, this presents an effective strategy for improving structural stability of supramolecular peptide-based assemblies during nebulization.

[2] = Dynamic light scattering molar scattering rate during nebulization; settings: measured every 2 min for 10 min nebulization
Experimental: We next investigated whether this filament breakdown was consistent over the course of a nebulization event. We measured the molar scattering rate of the filaments with dynamic light scattering (DLS) every 2 min for a total 10 min as a measure of assembly size, as larger filamentous assemblies will scatter light more strongly than smaller ones. The molar scattering rate represents the scattering rate normalized to the sample concentration and is used here, since the DLS software uses models for fitting spherical particles and our structures are anisotropic. […] In terms of delivering supramolecular filament systems with a jet nebulizer for treatment administration, the consistent filament breakdown over the course of a nebulization event is promising in regard to aerosol delivery, as the filaments are released reliably with a relatively uniform size drop over time from the device.

[3] = Circular dichroism of filaments before and after nebulization; settings: for CD signal immediately after nebulization, mist / CD signal immediately after nebulization, reservoir: 500 μM, 10 min nebulization; for CD signal immediately after nebulization, mist: filaments collected in the mist; for CD signal immediately after nebulization, reservoir: filaments leftover in the reservoir; for CD signal 2 weeks after nebulization: same solutions aged additional 2 weeks at room temperature
Experimental: FIGS. 13A-13C show circular dichroism (CD) spectra of the supramolecular filament systems before and immediately after nebulization (solid lines) alongside the same solutions 2 weeks later (dashed lines). All filaments were nebulized at 500 µM for 10 min. Data given are mean spectra for each solution (n=3). (13A) EPA filaments before and after nebulization, showing preservation of β-sheet character during nebulization. (13B) OPA filaments before and after nebulization, showing retention of β-sheet character with a temporary increase in CD signal. (13C) KPA filaments before and after nebulization, showing a transition from β-sheet to random coil for the nebulization group and weakened β-sheet hydrogen bonding for the reservoir group.
While we were able to directly observe filament breakdown in terms of length, we investigated further the impact nebulization may have on the molecular packing of the PA monomers within the supramolecular filaments. FIG. 13 contains the representative circular dichroism (CD) spectra of the three filament systems before and after a 10 min nebulization event of both filaments that exit as mist and those leftover in the reservoir. EPA, OPA, and KPA filaments before nebulization show primarily β-sheet characteristic hydrogen bonding, as evidenced by a negative peak around 220 nm and a positive peak around 197 nm for each system. […] This slightly contrasts from the behavior observed for the EPA filaments and is likely attributed to the potential alignment of OEG chains of OPA from aerosol formation forces, which reduces steric repulsion between OPA monomers. […] This is corroborated by the morphologies observed for the KPA filaments after nebulization, as smaller worm-like micelles and spherical micelles were generated. The strength of the hydrogen-bonding network within the supramolecular filaments is evidently important in the maintenance and stabilization of β-sheet character after nebulization.
To gain insight into the thermodynamic stability of the new assembly states induced by nebulization, we analyzed the CD signal of the same filament solutions after nebulization after aging for an additional 2 weeks in solution at room temperature. […] Additionally, the shorter EPA and OPA filaments are still observed in the nebulized and reservoir groups with TEM imaging after 2 weeks (FIGS. 14 and 15). […] Since a transition back to β-sheet character is not observed for the nebulized group, it is likely that nebulization induces the formation of new metastable assemblies of the KPA monomers, which is corroborated by TEM images of the KPA filaments 2 weeks after nebulization, as the fibril, worm-like micelle, and spherical micelle structures are still observed (FIG. 16).

[4] = Contour length analysis of filaments in TEM images after jet nebulization; settings: jet nebulization 10 min, mean±SD; for average contour length, exiting the nebulizer as a mist: nebulized mist population; for average contour length, leftover in the reservoir: reservoir population
Excerpt: FIGS. 12A-12F are contour length reduction analyses of (12A) EPA, (12B) OPA, and (12C) KPA filaments after nebulization, comparing the nebulized (red) and reservoir (blue) populations' size distributions (20 bins, 50 nm each). Nebulized populations measured shorter on average compared to the reservoir populations. Average contour lengths (μ) given as mean±SD alongside medians (M) for each population (****p<0.0001, two-tail unpaired t test; EPA: nN=316, nR=316; OPA: nN=311, nR=339; KPA: nN=377, nR=369). Dynamic light scattering measurements of (12D) EPA, (12E) OPA, and (12F) KPA over the course of a 10 min nebulization event as collected every 2 min, showing consistent filament breakdown over time. Data are normalized to molar scattering rate of filaments at t=0 min and given as mean±SD (p>0.05, two-way ANOVA, n=3).
as §1
Filaments before nebulization were not measured, as accurate contour lengths could not be determined, since the filaments are over several microns long. For all three systems, the nebulized population was measured to be on average shorter than its respective reservoir population. […] The EPA, OPA, and KPA filaments averaged around 287±147 nm, 174±103 nm, and 133±108 nm, respectively, exiting the nebulizer as a mist and around 360±177 nm, 206±88 nm, and 196±113 nm, respectively, leftover in the reservoir. For the KPA system, spherical micelles were omitted from this analysis as they bias the distribution representation toward non-filamentous structures.

[5] = Critical assembly concentration (CAC) by Nile Red assay; settings: in water
Excerpt: FIGS. 17A-17C depict the critical assembly concentration (CAC) of (17A) EPA, (17B) OPA, and (17C) KPA molecules in water as measured from a Nile Red assay. A fluorescence intensity maximum is shifted from a wavelength of 660 nm to 635 nm as Nile Red dye becomes encapsulated within the supramolecular structures of the peptide amphiphiles (PAs). Blue line represents region of concentrations where Nile Red remains in solution; red line represents region where Nile Red is encapsulated. Data are given as mean±SD (n=3).
Therefore, we assessed the thermodynamic stability of each supramolecular filament system by measuring their critical assembly concentration (CAC) using a Nile Red assay. As shown in FIGS. 17A-C, the CAC values of EPA, OPA, and KPA were measured to be 1 μM, 1.9 μM, and 40 μM, respectively. Data from the Nile Red assay are given in full in FIG. 18. The differences in CAC between the different PAs are likely reflective of differences in electrostatic repulsion between the charged groups of EPA and KPA and steric effects with respect to the size of the OEG groups of the OPA molecule.^74 We find a direct correlation between the CAC value and nebulization stability of the supramolecular filaments with respect to nanostructure integrity and hydrogen bonding interactions. […] As the CAC value represents the propensity of the monomer units to aggregate in solution, increasing the strength of hydrophobic interactions alongside other non-covalent interactions through molecular engineering can result in lower CAC systems, and thus create supramolecular filament systems with enhanced stability during aerosol formation.

[6] = Loading capacity of drugs/dye within KPA filaments; settings: encapsulated in KPA filaments, % by mass
Excerpt: FIGS. 20A-20C show (20A) the molecular structure of the lung disease-relevant drugs and fluorescent dye used in loading within the supramolecular filaments: paclitaxel (PTX, MW=853.92 g/mol), the anticancer drug; coumarin 6 (Cou6, MW=350.44 g/mol), the green fluorescent dye; and budesonide (BUD, MW=430.54 g/mol), the anti-inflammatory glucocorticoid used to treat symptoms of asthma and chronic obstructive pulmonary disease (top). (20B) The encapsulation process of hydrophobic drugs and dyes within supramolecular peptide amphiphile (PA)-based filaments, where dissolution of PA monomers and drug/dye in aqueous solutions results in their self-assembly with the drug/dye loaded within the hydrophobic core (left). The loading capacity of PTX, Cou6, and BUD based on mass (left axis, solid bars) and mole (right axis, checkered bars) percent within KPA supramolecular filaments (right). Data are given as mean±SD (n=5). (20C) Representative transmission electron microscopy (TEM) images of KPA filaments loaded with PTX (i, ii), Cou6 (iii, iv), and BUD (v, vi) before and after nebulization at 500 μM. Diameters are given as mean±SD (n=35).
With better insight into nebulization stability and the mechanism of supramolecular filament breakdown, we next sought to assess whether these systems can successfully carry drugs and dyes within aerosol droplets for potential inhalation-based therapies. […]

| CD signal immediately after nebulization, mist [3] | CD signal immediately after nebulization, reservoir [3] | CD signal 2 weeks after nebulization [3] | average contour length, exiting the nebulizer as a mist [4] | average contour length, leftover in the reservoir [4] | critical assembly concentration (CAC) [5] | loading capacity by mass within KPA filaments [6] | SMILES | structure/morphology after nebulization (TEM) [1] | filament breakdown over time (molar scattering rate, DLS) [2] |
| --- | --- | --- | --- | --- | --- | --- | --- | --- | --- |
| slightly increased β-sheet signal | no change to their hydrogen bonding | maintained their β-sheet character | around 287±147 nm | around 360±177 nm | 1 µM | – | CCCCCCCCCCCC(=O)N[C@@H](Cc1ccc(O)cc1)C(=O)NC(C(=O)N[C@H](C(=O)NC(C(=O)NCC(=O)NCC(=O)N[C@@H](CCC(=O)O)C(=O)NC(CCC(=O)O)C(=O)N[C@@H](CCC(=O)O)C(N)=O)C(C)C)C(C)C)C(C)C (some centres unmarked) [EPA] (Lauroyl-Y[ξV]V[ξV]GGE[ξE]E-NH2) | maintained their filamentous structure but a notable reduction in length was observed | consistent breakdown over the course of 10 min |
| – | – | – | – | – | – | 1.5% | CC(=O)O[C@H]1C(=O)[C@@]2(C)[C@H]([C@H](OC(=O)c3ccccc3)[C@]3(O)C[C@H](OC(=O)[C@H](O)[C@@H](NC(=O)c4ccccc4)c4ccccc4)C(C)=C1C3(C)C)[C@]1(OC(C)=O)CO[C@@H]1C[C@@H]2O [PTX, paclitaxel] | – | – |
| – | – | – | – | – | – | – | CCCC1O[C@@H]2C[C@H]3[C@@H]4CCC5=CC(=O)C=C[C@]5(C)[C@H]4[C@@H](O)CC3(C)C2(C(=O)COC(=O)OCCSSC[C@H](NC(C)=O)C(=O)NC(C(=O)N[C@H](C(=O)NC(C(=O)NCC(=O)NCC(=O)NC(CCCCN)C(=O)NC(C(=O)NC(CC(C)C)C(=O)NC(CC(=O)O)C(=O)NCC(=O)NC(CCC(N)=O)C(=O)NC(CC(=O)O)C(=O)N2CCCC2C(N)=O)C(C)C)C(C)C)C(C)C)C(C)C)O1 (some centres unmarked) [CAB-0] (Ac-C(X2)[ξV]V[ξV]GG[ξK][ξV][ξL][ξD]G[ξQ][ξD][ξP]-NH2) | retention of filaments after a nebulization event with shortened length | – |
| increased β-sheet signals | increased β-sheet signals | maintained their β-sheet character | ~174±103 nm | ~206±88 nm | 1.9 µM | – | CCCCCCCCCCCC(=O)N[C@@H](Cc1ccc(O)cc1)C(=O)NC(C(=O)N[C@H](C(=O)NC(C(=O)NCC(=O)NCC(=O)N[C@@H](CCCCNC(=O)CCOCCOCCOCCOCCOC)C(=O)NC(CCCCNC(=O)CCOCCOCCOCCOCCOC)C(N)=O)C(C)C)C(C)C)C(C)C (some centres unmarked) [OPA] (Lauroyl-Y[ξV]V[ξV]GGK(X1)[ξK](X1)-NH2) | shorter filaments are produced | consistent breakdown over the course of 10 min |

| SMILES | CD signal immediately after nebulization, mist [3] | CD signal immediately after nebulization, reservoir [3] | CD signal 2 weeks after nebulization [3] | average contour length, exiting the nebulizer as a mist [4] | average contour length, leftover in the reservoir [4] | critical assembly concentration (CAC) [5] | loading capacity by mass within KPA filaments [6] | structure/morphology after nebulization (TEM) [1] | filament breakdown over time (molar scattering rate, DLS) [2] |
| --- | --- | --- | --- | --- | --- | --- | --- | --- | --- |
| CCCCCCCCCCCC(=O)N[C@@H](Cc1ccc(O)cc1)C(=O)NC(C(=O)N[C@H](C(=O)NC(C(=O)NCC(=O)NCC(=O)N[C@@H](CCCCN)C(=O)NC(CCCCN)C(=O)N[C@@H](CCCCN)C(N)=O)C(C)C)C(C)C)C(C)C (some centres unmarked) [KPA] (Lauroyl-Y[ξV]V[ξV]GGK[ξK]K-NH2) | secondary structure transition from β-sheet to random coil character | weakened β-sheet signal | continued to display the weakened β-sheet signal in the reservoir group and the random coil character of the nebulized group | ~133±108 nm | ~196±113 nm | 40 µM | – | formation of different morphologies in both populations | consistent breakdown over the course of 10 min |
